“And” between values parts separate entries of the source, which are not always exact repeats. Identical values can stand only once.
How the values were obtained:
[1] = Surfactant stability: change in lauric acid concentration of surfactant solutions after 65 C for 1 month vs baseline (HPLC/MS/MS); type: physicochemical; details: for Delta % lauric acid/Anionic Surfactant Conc.: 65 C 1 month; for Delta % lauric acid/Co Surfactant Conc.: 8.0% co surfactant alone, 65 C 1 month vs as made at about 25 C
Description: Lowering the personal care composition's pH is a key driver of hydroxy acid delivery to the hair and the skin under the hair. However, lowering pH reduces the options of suitable anionic surfactants free-of sulfates as many are susceptible to hydrolysis. Therefore, surfactant stability is analyzed by measuring the change in lauric acid concentration of surfactant solutions after exposure to high temperature (65 C) for 1 month and at range of pH vs. baseline conditions (surfactant solutions as made at ambient temperature of about 25 C). As shown in the table below, the Taurate surfactants are less susceptible to degradation at lower pH and (rows 8-10, 17-21 and 30-33) vs. other common amino acid based anionic surfactants (Sarcosinate, Alaninate, Glutamate, Glycinate, and Isethionate).
Approximately 10 mg of each sample is weighed into a vial and 10 mL of isopropanol (IPA) added and mixed. An aliquot of the diluted sample (0.1 mL) is then transferred into an autosampler vial containing stable-isotope-labeled (D23 lauric acid) internal standard (ISTD) and diluent (85/15 IPA/water, 0.9 mL). A set of lauric acid standards is prepared over an appropriate calibration range in diluent and spiked with ISTD. The standards and samples are analyzed using gradient reversed-phase high performance liquid chromatography with tandem mass spectrometry (HPLC/MS/MS). Lauric acid and the ISTD are monitored by negative ion electrospray (ESI) using “pseudo” selected reaction monitoring (i.e., a precursor-to-precursor transition with no mass loss). A standard curve is constructed by plotting the peak area ratio (peak area lauric acid/peak area ISTD) for each standard versus lauric acid concentration. The amount of lauric acid in the calibration standards and diluted samples is back-calculated using the generated regression equation. The result is reported as the mass of lauric acid per g of sample (% Lauric Acid).

forearm skin = test: Surfactant mildness forearm study, GPSkin device, TEWL; type: in vivo; details: Sodium Methyl Cocoyl Taurate at 2.5% vs Sodium Lauryl Sulfate at 9.0%, pH 3.0 compositions
Description: • Method. A simple forearm study design approach is leveraged to screen prototypes for skin health benefits. GPSkin devices from GPOWER Inc. are used to monitor skin health over the duration of the study. Baseline GPSkin health measures are taken on day 1 followed by product treatment and rinse. This procedure is repeated over three consecutive days and two treatments are evaluated. n=7

[2] = 7.0% Cocamidopropyl Betaine + 3.0% anionic surfactant, pH 5.2
[3] = 7.0% Cocamidopropyl Betaine + 3.0% anionic surfactant, pH 4.5
[4] = 7.0% Cocamidopropyl Betaine + 3.0% anionic surfactant, pH 5.8
[5] = 7.0% Cocamidopropyl Betaine + 3.0% anionic surfactant, pH 6.5

Compound | Delta % lauric acid/Anionic Surfactant Conc. [1, 2] | Delta % lauric acid/Anionic Surfactant Conc. [1, 3] | Delta % lauric acid/Anionic Surfactant Conc. [1, 4] | Delta % lauric acid/Anionic Surfactant Conc. [1, 5] | also measured
Sodium cocoyl isethionate | 7.379% | – | – | – | Delta % lauric acid/Anionic Surfactant Conc. ([1]; 7.0% Cocamidopropyl Betaine + 3.0% anionic surfactant, pH 5.7): 4.277%; Delta % lauric acid/Anionic Surfactant Conc. ([1]; 7.0% Cocamidopropyl Betaine + 3.0% anionic surfactant, pH 6.4): 3.124%
Sodium cocoyl glycinate | 7.971% | 12.626% | 1.791% | 0.619% | –
Sodium methyl cocoyl taurate | 1.005% and 1.220% and 1.468% | – | 0.689% | 0.510% | Delta % lauric acid/Anionic Surfactant Conc. ([1]; 8.0% anionic surfactant alone, pH 5.1): 0.218%; Delta % lauric acid/Anionic Surfactant Conc. ([1]; 8.0% anionic surfactant alone, pH 5.8): 0.026%; Delta % lauric acid/Anionic Surfactant Conc. ([1]; 8.0% anionic surfactant alone, pH 6.5): 0.223%; mildness on forearm skin (forearm skin): milder on forearm skin than Sodium Lauryl Sulfate at 9.0%
Sodium cocoyl alaninate | 5.890% | 9.905% | 2.058% | 1.097% | Delta % lauric acid/Anionic Surfactant Conc. ([1]; 8.0% anionic surfactant alone, pH 5.2): 5.735%; Delta % lauric acid/Anionic Surfactant Conc. ([1]; 8.0% anionic surfactant alone, pH 5.6): 2.086%; Delta % lauric acid/Anionic Surfactant Conc. ([1]; 8.0% anionic surfactant alone, pH 6.3): 0.729%
Cocamidopropyl Betaine | – | – | – | – | Delta % lauric acid/Co Surfactant Conc. ([1]; pH 5.2): 0.130%; Delta % lauric acid/Co Surfactant Conc. ([1]; pH 5.8): 0.216%; Delta % lauric acid/Co Surfactant Conc. ([1]; pH 6.5): 0.187% and 0.154%
CCCCCCCCCCCC(=O)OC(C)CS(=O)(=O)[O-].[Na+] (centres unmarked) [Sodium Lauroyl Methyl Isethionate] | 5.262% | 16.097% | 2.867% | 3.002% | –
Sodium cocoyl taurate | 0.135% | 1.076% | −0.276% | 0.024% | –
